These are literature values, as cited in patent publication US20030130180A1, “Utilization of an aminopeptidase inhibitor” (priority 2000, published 2003).

The test system of the data set is tumor cells. Conditions: in vitro, matrigel analytic system; cited from earlier work.

As for `CCCCC[C@H](CC(=O)NO)C(=O)N[C@H](C(=O)N1CCC[C@H]1CO)C(C)C` [actinonin], the tumor cell invasion result is on record as “do not have an effect”.
